Results on 1 compound are retold here after patent US10772900B2, “Drug target for treating veterinary infections and methods of using same” (THE TRUSTEES OF THE UNIVERSITY OF PENNSYLVANIA, priority 2016, dated 2020).

Data set [1] relates to Plasmodium falciparum. The settings on record: clinical trials, malaria, administered alone or in combination with clindamycin; cited from earlier work.
Data set [2] deals with S. lugdunensis. Description: MIC and MBC assays in Mueller-Hinton broth. Type of data set: cell-based. The settings on record: Staphylococcus lugdunensis, 37° C., 18-20 hours, read-out: MIC (concentration at which bacteria still grew normally). The procedure: (§1) The minimal inhibitory concentration (MIC) of various antimicrobials (amoxicillin-clavulanic acid, ampicillin, cefazolin, chloramphenicol, ciprofloxacin, clindamycin, erythromycin, gentamicin, imipenem, oxacillin, penicillin, rifampin, tetracycline, trimethoprim-sulfamethoxazole, and vancomycin) was determined via broth microdilution on a MicroScan Walkaway 40 PC20 Gram-positive combo-panel (Dade Behring, Sacramento, Calif.). Enrofloxacin and marbofloxacin susceptibilities were determined via Kirby-Bauer disk diffusion as these drugs were not available on the pre-configured commercial test panel. Fosmidomycin MIC assays were performed following clinical laboratory standards. Fosmidomycin (Sigma, St. Louis, USA) was filter-sterilized with a […] filter (Pall Corporation, Ann Arbor, USA) and was serially 2-fold diluted in a concentration range of 40.96-0.25 mg/mL. Tubes containing 1 mL Mueller-Hinton broth (Sigma) were inoculated with 5×10^5 colony forming units/mL. 50 μL of the appropriate fosmidomycin concentration was added to each tube containing the starter culture, and was incubated at 37° C. overnight with shaking at 250 rpm for 18-20 hours. The MICS were determined by visual inspection. The minimum bactericidal concentration (MBC) was determined by plating 200 μL of the drug-treated cultures onto Mueller-Hinton agar plates (Remel, Lenexa, USA). The lowest concentration at which there was no growth after a 24-hour incubation at 37° C. was determined to be the MBC. For the plate-based fosmidomycin growth assay, overnight cultures of Staphylococcus species grown in Mueller-Hinton broth were sub-cultured to Mueller-Hinton agar plates containing 50 μg/mL fosmidomycin and were incubated for 24 hours at 37° C. All assays were performed and the results were interpreted using Clinical Laboratory Standards Institute guidelines (CLSI. (2013) Approved Standard-Fourth Edition. Clinical and Laboratory Standards Institute, Wayne, Pa., USA).

The test system of data set [3] is S. epidermidis. Kind of data set: MIC and MBC assays in Mueller-Hinton broth. It counts as cell-based. The settings on record: Staphylococcus epidermidis, 37° C., 18-20 hours, read-out: MIC (concentration at which bacteria still grew normally). How it is done: as §1
Data set [4] relates to S. aureus. Description: MIC and MBC assays in Mueller-Hinton broth. It counts as cell-based. Particulars: Staphylococcus aureus, 37° C., 18-20 hours, read-out: MIC (concentration at which bacteria still grew normally). How it is done: as §1
For data set [5], the system named is S. schleiferi. Kind of data set: plate-based fosmidomycin growth assay. The settings on record: 50 μg/mL fosmidomycin, Mueller-Hinton agar, 24 hours at 37° C. It counts as cell-based, Staphylococcus schleiferi. How it is done: as §1, with “50 μL of the appropriate fosmidomycin concentration was added to each tube containing the starter culture, and was incubated at 37° C. overnight with shaking at 250 rpm for 18-20 hours.” left out, “For the plate-based fosmidomycin growth assay, overnight cultures of Staphylococcus species grown in Mueller-Hinton broth were sub-cultured to Mueller-Hinton agar plates containing 50 μg/mL fosmidomycin and were incubated for 24 hours at 37° C. All assays were performed and the results were interpreted using Clinical Laboratory Standards Institute guidelines (CLSI. (2013) Approved Standard-Fourth Edition. Clinical and Laboratory Standards Institute, Wayne, Pa., USA).” left out

Data set [6] has as its system S. pseudintermedius. Description: plate-based fosmidomycin growth assay. The settings on record: 50 μg/mL fosmidomycin, Mueller-Hinton agar, 24 hours at 37° C. It counts as cell-based, Staphylococcus pseudintermedius. The procedure:
as §1, with “50 μL of the appropriate fosmidomycin concentration was added to each tube containing the starter culture, and was incubated at 37° C. overnight with shaking at 250 rpm for 18-20 hours.” left out, “For the plate-based fosmidomycin growth assay, overnight cultures of Staphylococcus species grown in Mueller-Hinton broth were sub-cultured to Mueller-Hinton agar plates containing 50 μg/mL fosmidomycin and were incubated for 24 hours at 37° C. All assays were performed and the results were interpreted using Clinical Laboratory Standards Institute guidelines (CLSI. (2013) Approved Standard-Fourth Edition. Clinical and Laboratory Standards Institute, Wayne, Pa., USA).” left out

For data set [7], the system named is Plasmodium falciparum. The settings on record: cited from earlier work.
Data set [8] relates to S. schleiferi. Description: MIC and MBC assays in Mueller-Hinton broth. Type of data set: cell-based, Staphylococcus schleiferi. The procedure: as §1
For data set [9], the system named is S. epidermidis. Description: plate-based fosmidomycin growth assay. It counts as cell-based, Staphylococcus epidermidis. The settings on record: 50 μg/mL fosmidomycin, Mueller-Hinton agar, 24 hours at 37° C. How it is done: as §1, with “50 μL of the appropriate fosmidomycin concentration was added to each tube containing the starter culture, and was incubated at 37° C. overnight with shaking at 250 rpm for 18-20 hours.” left out, “For the plate-based fosmidomycin growth assay, overnight cultures of Staphylococcus species grown in Mueller-Hinton broth were sub-cultured to Mueller-Hinton agar plates containing 50 μg/mL fosmidomycin and were incubated for 24 hours at 37° C. All assays were performed and the results were interpreted using Clinical Laboratory Standards Institute guidelines (CLSI. (2013) Approved Standard-Fourth Edition. Clinical and Laboratory Standards Institute, Wayne, Pa., USA).” left out

Data set [10] deals with S. aureus. Description: plate-based fosmidomycin growth assay. It counts as cell-based, Staphylococcus aureus. The settings on record: 50 μg/mL fosmidomycin, Mueller-Hinton agar, 24 hours at 37° C. The procedure:
as §1, with “50 μL of the appropriate fosmidomycin concentration was added to each tube containing the starter culture, and was incubated at 37° C. overnight with shaking at 250 rpm for 18-20 hours.” left out, “For the plate-based fosmidomycin growth assay, overnight cultures of Staphylococcus species grown in Mueller-Hinton broth were sub-cultured to Mueller-Hinton agar plates containing 50 μg/mL fosmidomycin and were incubated for 24 hours at 37° C. All assays were performed and the results were interpreted using Clinical Laboratory Standards Institute guidelines (CLSI. (2013) Approved Standard-Fourth Edition. Clinical and Laboratory Standards Institute, Wayne, Pa., USA).” left out

Data set [11] relates to S. pseudintermedius. Description: MIC and MBC assays in Mueller-Hinton broth. It counts as cell-based, Staphylococcus pseudintermedius. How it is done:
as §1, with “50 μL of the appropriate fosmidomycin concentration was added to each tube containing the starter culture, and was incubated at 37° C. overnight with shaking at 250 rpm for 18-20 hours.” left out, “For the plate-based fosmidomycin growth assay, overnight cultures of Staphylococcus species grown in Mueller-Hinton broth were sub-cultured to Mueller-Hinton agar plates containing 50 μg/mL fosmidomycin and were incubated for 24 hours at 37° C. All assays were performed and the results were interpreted using Clinical Laboratory Standards Institute guidelines (CLSI. (2013) Approved Standard-Fourth Edition. Clinical and Laboratory Standards Institute, Wayne, Pa., USA).” left out

Data set [12] deals with S. sciuri. Description: MIC and MBC assays in Mueller-Hinton broth. It counts as cell-based, Staphylococcus sciuri. How it is done: as §1, with “50 μL of the appropriate fosmidomycin concentration was added to each tube containing the starter culture, and was incubated at 37° C. overnight with shaking at 250 rpm for 18-20 hours.” left out, “For the plate-based fosmidomycin growth assay, overnight cultures of Staphylococcus species grown in Mueller-Hinton broth were sub-cultured to Mueller-Hinton agar plates containing 50 μg/mL fosmidomycin and were incubated for 24 hours at 37° C. All assays were performed and the results were interpreted using Clinical Laboratory Standards Institute guidelines (CLSI. (2013) Approved Standard-Fourth Edition. Clinical and Laboratory Standards Institute, Wayne, Pa., USA).” left out

Data set [13] is described as follows: fosmidomycin safety trial for otic application in dogs. The settings on record: 100 micrograms in sterile water twice daily to both ears, 10 days. It counts as in vivo, dog. The procedure: FIGS. 7A-7C are a series of plots illustrating the outcome of a fosmidomycin safety trial for otic application in dogs. Five colony dogs were used in the safety study. Four of the five dogs were homozygous for ectodermal dysplasia, while the remaining dog was a carrier (heterozygote). Each dog was treated with 100 micrograms of fosmidomycin resuspended in water and applied twice daily to both ears. Pain and inflammation were assessed using the Short Form of the Glasgow Composite Pain Scale (FIG. 7A) and the Otitis Index Score (FIG. 7B and FIG. 7C), respectively. Clinical scoring was carried out prior to fosmidomycin treatment (“pre”), each day of drug application for 10 days, and one day after the cessation of treatment (“post”). Bars represent the mean and standard deviation of scores for the group of 5 dogs at each timepoint. Dotted lines represent field-standard thresholds for clinically significant pain or inflammation.
Five research dogs were used in a safety study testing otic application of fosmidomycin. Four of the five dogs were homozygous for ectodermal dysplasia, while the remaining dog was a carrier (heterozygote). […] Pain and inflammation were assessed using the Short Form of the Glasgow Composite Pain Scale (FIG. 7A) and the Otitis Index Score (FIG. 7B and FIG. 7C), respectively. […]

Setting [14] is: plated on Mueller-Hinton agar, 24-hour incubation at 37° C.

A value given as a limit tells only on which side of the number the result lay.

For the compound `O=CN(O)CCCP(=O)(O)O` [fosmidomycin], the cure rates in [1] is on record as 85-100%. The MIC in data set [2] was more than 256 µg/mL; in data set [3], more than 256 µg/mL; in data set [4], more than 256 µg/mL; in data set [8] (Staphylococcus schleiferi, Mueller-Hinton broth, 37° C., 18-20 hours, read-out: MIC (inhibited by concentrations as low as)) it was not below 0.5 µg/mL; in data set [11] (Staphylococcus pseudintermedius, Mueller-Hinton broth, 37° C., 18-20 hours, read-out: MIC (inhibited by concentrations as low as)), not below 0.5 µg/mL; in data set [12] (Mammaliicoccus sciuri, Mueller-Hinton broth, 37° C., 18-20 hours, read-out: MIC (inhibited by concentrations as low as)), not below 0.5 µg/mL. Further, the “growth on agar plates containing fosmidomycin” value in [5] is “completely restricted growth”; in data set [6], “completely restricted growth”; in data set [9], “grew”; in data set [10], “grew”. Further, the “killing the parasite in culture” value in [7] is given as “effective”. Also, the “inhibition of multi-drug resistant strain” value in data set [8] (S. schleiferi strain 1360-13, multi-drug resistant phenotype) is listed as “inhibited”. In addition, the “MBC (killed by concentrations of)” value in [8] (setting [14]), in data set [11] (setting [14]) and in [12] (setting [14]) was 4 to 16 µg/mL each time. The “inflammation score (Otitis Index Score)” value in [13] is given as “clinically insignificant”. Moreover, in data set [13], the “pain score (Short Form of the Glasgow Composite Pain Scale)” value is “clinically insignificant”.
